Here are results for 18 molecules from ChEMBL document CHEMBL1135126, “Identification of novel antifungal nonapeptides through the screening of combinatorial peptide libraries based on a hexapeptide motif” (Bioorg Med Chem Lett, 2002).

Each structure is given as a SMILES string. Values after ≈ are worked out from the molar mass of the structure shown.

The subject of assay [1] is Candida albicans. The assay can be described thus: Concentration that substantially inhibit growth of Candida albicans. It is filed as functional, organism-based.
Assay [2] concerns Cryptococcus neoformans. Briefly: Concentration that substantially inhibit the growth of Cryptococcus neoformans. It is filed as functional.

What is called IC50 is the point on the concentration scale where inhibition reaches its midpoint. The MIC is the lowest concentration found to suppress growth.

In assay [1], `CC[C@H](C)[C@H](NC(=O)[C@@H](Cc1ccccc1)NC(=O)[C@@H](Cc1c[nH]c2ccccc12)NC(=O)[C@@H](N)CCCN=C(N)N)C(=O)N[C@H](Cc1ccccc1)C(=O)N[C@@H](Cc1c[nH]cn1)C(=O)N[C@@H](CCCCN)C(=O)N[C@@H](CCCN=C(N)N)C(=O)N[C@@H](CC(C)C)C(N)=O` came in with an IC50 of 4.37 µM. The molecule further displayed an MIC in assay [2] of 2.39 µM (≈ 3.11 µg/mL).

Consider `CC[C@H](C)[C@H](NC(=O)[C@@H](Cc1ccccc1)NC(=O)[C@@H](Cc1c[nH]c2ccccc12)NC(=O)[C@@H](N)CCCN=C(N)N)C(=O)N[C@H](Cc1ccccc1)C(=O)N[C@@H](Cc1c[nH]cn1)C(=O)N[C@@H](CCCCN)C(=O)N[C@@H](CCCN=C(N)N)C(=O)N[C@@H](C)C(N)=O`, for which, in assay [1], the IC50 amounted to 5.99 µM. This molecule returned a minimal inhibitory concentration (MIC) in assay [2] of 4.96 µM (≈ 6.25 µg/mL).

Consider `CC[C@H](C)[C@H](NC(=O)[C@@H](Cc1ccccc1)NC(=O)[C@@H](Cc1c[nH]c2ccccc12)NC(=O)[C@@H](N)CCCN=C(N)N)C(=O)N[C@H](Cc1ccccc1)C(=O)N[C@@H](Cc1c[nH]cn1)C(=O)N[C@@H](CCCCN)C(=O)N[C@@H](CCCCN)C(=O)N[C@@H](CC(C)C)C(N)=O`, for which, in assay [1], the IC50 came out at 2.18 µM. For the same molecule, the minimal inhibitory concentration (MIC) in assay [2] was 2.4 µM (≈ 3.06 µg/mL).

With `CC[C@H](C)[C@H](NC(=O)[C@@H](Cc1ccccc1)NC(=O)[C@@H](Cc1c[nH]c2ccccc12)NC(=O)[C@@H](N)CCCN=C(N)N)C(=O)N[C@H](Cc1ccccc1)C(=O)N[C@@H](Cc1c[nH]cn1)C(=O)N[C@@H](CCCCN)C(=O)N[C@@H](CCCN=C(N)N)C(=O)N[C@@H](Cc1ccc(O)cc1)C(N)=O`, in assay [1], the midpoint of inhibition, the IC50, lay at 7.08 µM. This molecule registered an MIC in assay [2] of 4.62 µM (≈ 6.24 µg/mL).

Molecule `CC[C@H](C)[C@H](NC(=O)[C@@H](Cc1ccccc1)NC(=O)[C@@H](Cc1c[nH]c2ccccc12)NC(=O)[C@@H](N)CCCN=C(N)N)C(=O)N[C@H](Cc1ccccc1)C(=O)N[C@@H](Cc1c[nH]cn1)C(=O)N[C@@H](CCCCN)C(=O)N[C@@H](CCCN=C(N)N)C(=O)N[C@H](C(N)=O)[C@@H](C)O` showed an IC50 in assay [1] of 5.97 µM. This molecule had a minimum inhibitory concentration (MIC) in assay [2] of 4.84 µM (≈ 6.24 µg/mL).

Turning to `CC[C@H](C)[C@H](NC(=O)[C@@H](Cc1ccccc1)NC(=O)[C@@H](Cc1c[nH]c2ccccc12)NC(=O)[C@@H](N)CCCN=C(N)N)C(=O)N[C@H](Cc1ccccc1)C(=O)N[C@@H](Cc1c[nH]cn1)C(=O)N[C@@H](CCCCN)C(=O)N[C@@H](CCCCN)C(=O)N[C@@H](CCC(N)=O)C(N)=O`, in assay [1], it took 2.58 µM to reach half-maximal inhibition (IC50). In assay [2], it took 2.37 µM (≈ 3.05 µg/mL) to inhibit growth (MIC).

As to `CC[C@H](C)[C@H](NC(=O)[C@@H](Cc1ccccc1)NC(=O)[C@@H](Cc1c[nH]c2ccccc12)NC(=O)[C@@H](N)CCCN=C(N)N)C(=O)N[C@H](Cc1ccccc1)C(=O)N[C@@H](Cc1c[nH]cn1)C(=O)N[C@@H](CCCCN)C(=O)N[C@@H](CCCN=C(N)N)C(=O)N[C@@H](Cc1c[nH]c2ccccc12)C(N)=O`, in assay [1], it took 6.35 µM to reach half-maximal inhibition (IC50). In addition, in assay [2], the MIC is 4.54 µM (≈ 6.24 µg/mL).

The molecule `CC[C@H](C)[C@H](NC(=O)[C@@H](Cc1ccccc1)NC(=O)[C@@H](Cc1c[nH]c2ccccc12)NC(=O)[C@@H](N)CCCN=C(N)N)C(=O)N[C@H](Cc1ccccc1)C(=O)N[C@@H](Cc1c[nH]cn1)C(=O)N[C@@H](CCCCN)C(=O)N[C@@H](CCCCN)C(=O)N[C@@H](Cc1c[nH]c2ccccc12)C(N)=O` came in with an IC50 in assay [1] of 2.61 µM. Besides, inhibition of growth in assay [2] (MIC) required 1.14 µM (≈ 1.54 µg/mL).

Molecule `CC[C@H](C)[C@H](NC(=O)[C@@H](Cc1ccccc1)NC(=O)[C@@H](Cc1c[nH]c2ccccc12)NC(=O)[C@@H](N)CCCN=C(N)N)C(=O)N[C@H](Cc1ccccc1)C(=O)N[C@@H](Cc1c[nH]cn1)C(=O)N[C@@H](CCCCN)C(=O)N[C@@H](CCCCN)C(=O)N[C@H](C(N)=O)[C@@H](C)O` registered an IC50 in assay [1] of 2.38 µM. Moreover, the MIC in assay [2] was 2.44 µM (≈ 3.08 µg/mL).

`CC[C@H](C)[C@H](NC(=O)[C@@H](Cc1ccccc1)NC(=O)[C@@H](Cc1c[nH]c2ccccc12)NC(=O)[C@@H](N)CCCN=C(N)N)C(=O)N[C@H](Cc1ccccc1)C(=O)N[C@@H](Cc1c[nH]cn1)C(=O)N[C@@H](CCCCN)C(=O)N[C@@H](CCCN=C(N)N)C(=O)N[C@@H](CC(N)=O)C(N)=O` yielded a half-maximal inhibitory concentration (IC50) in assay [1] of 4.64 µM. This molecule also yielded an MIC in assay [2] of 2.39 µM (≈ 3.11 µg/mL).

`CC[C@H](C)[C@H](NC(=O)[C@@H](Cc1ccccc1)NC(=O)[C@@H](Cc1c[nH]c2ccccc12)NC(=O)[C@@H](N)CCCN=C(N)N)C(=O)N[C@H](Cc1ccccc1)C(=O)N[C@@H](Cc1c[nH]cn1)C(=O)N[C@@H](CCCCN)C(=O)N[C@@H](CCCCN)C(=O)N[C@@H](CCCCN)C(N)=O` displayed an IC50 in assay [1] of 1.83 µM. Further, inhibition of growth in assay [2] (MIC) required 2.37 µM (≈ 3.05 µg/mL).

`CC[C@H](C)[C@H](NC(=O)[C@@H](Cc1ccccc1)NC(=O)[C@@H](Cc1c[nH]c2ccccc12)NC(=O)[C@@H](N)CCCN=C(N)N)C(=O)N[C@H](Cc1ccccc1)C(=O)N[C@@H](Cc1c[nH]cn1)C(=O)N[C@@H](CCCCN)C(=O)N[C@@H](CCCCN)C(=O)N[C@@H](Cc1ccc(O)cc1)C(N)=O`: the half-inhibitory concentration (IC50) in assay [1] is 2.74 µM. In addition, inhibition of growth in assay [2] (MIC) required 1.16 µM (≈ 1.54 µg/mL).

`CC[C@H](C)[C@H](NC(=O)[C@@H](Cc1ccccc1)NC(=O)[C@@H](Cc1c[nH]c2ccccc12)NC(=O)[C@@H](N)CCCN=C(N)N)C(=O)N[C@H](Cc1ccccc1)C(=O)N[C@@H](Cc1c[nH]cn1)C(=O)N[C@@H](CCCCN)C(=O)N[C@@H](CCCN=C(N)N)C(=O)N[C@@H](Cc1ccccc1)C(N)=O` showed an IC50 in assay [1] of 5.5 µM. In addition, the minimum inhibitory concentration (MIC) in assay [2] was found to be 4.67 µM (≈ 6.24 µg/mL).

In assay [1], `CC[C@H](C)[C@H](NC(=O)[C@@H](Cc1ccccc1)NC(=O)[C@@H](Cc1c[nH]c2ccccc12)NC(=O)[C@@H](N)CCCN=C(N)N)C(=O)N[C@H](Cc1ccccc1)C(=O)N[C@@H](Cc1c[nH]cn1)C(=O)N[C@@H](CCCCN)C(=O)N[C@@H](CCCN=C(N)N)C(=O)N1CCC[C@H]1C(N)=O` yielded a concentration for half-maximal inhibition (IC50) of 4.7 µM. In assay [2], it took 2.42 µM (≈ 3.11 µg/mL) to inhibit growth (MIC).

With `CC[C@H](C)[C@H](NC(=O)[C@@H](Cc1ccccc1)NC(=O)[C@@H](Cc1c[nH]c2ccccc12)NC(=O)[C@@H](N)CCCN=C(N)N)C(=O)N[C@H](Cc1ccccc1)C(=O)N[C@@H](Cc1c[nH]cn1)C(=O)N[C@@H](CCCCN)C(=O)N[C@@H](CCCN=C(N)N)C(=O)N[C@@H](CCC(N)=O)C(N)=O`, in assay [1], the half-maximal inhibitory concentration (IC50) was 3.92 µM. This molecule registered an MIC in assay [2] of 4.74 µM (≈ 6.24 µg/mL).

Take `CC[C@H](C)[C@H](NC(=O)[C@@H](Cc1ccccc1)NC(=O)[C@@H](Cc1c[nH]c2ccccc12)NC(=O)[C@@H](N)CCCN=C(N)N)C(=O)N[C@H](Cc1ccccc1)C(=O)N[C@@H](Cc1c[nH]cn1)C(=O)N[C@@H](CCCCN)C(=O)N[C@@H](CCCN=C(N)N)C(=O)N[C@@H](CO)C(N)=O`: it took 4.38 µM to reach half-maximal inhibition in assay [1] (IC50). In assay [2], the lowest concentration to inhibit growth (MIC) was 4.89 µM (≈ 6.24 µg/mL).

`CC[C@H](C)[C@H](NC(=O)[C@@H](Cc1ccccc1)NC(=O)[C@@H](Cc1c[nH]c2ccccc12)NC(=O)[C@@H](N)CCCN=C(N)N)C(=O)N[C@H](Cc1ccccc1)C(=O)N[C@@H](Cc1c[nH]cn1)C(=O)N[C@@H](CCCCN)C(=O)N[C@@H](CCCN=C(N)N)C(=O)N[C@@H](CCCCN)C(N)=O` registered an IC50 in assay [1] of 3.34 µM. In assay [2], this molecule yielded an MIC of 2.36 µM (≈ 3.11 µg/mL).

Take `CC[C@H](C)[C@H](NC(=O)[C@@H](Cc1ccccc1)NC(=O)[C@@H](Cc1c[nH]c2ccccc12)NC(=O)[C@@H](N)CCCN=C(N)N)C(=O)N[C@H](Cc1ccccc1)C(=O)N[C@@H](Cc1c[nH]cn1)C(=O)N[C@@H](CCCCN)C(=O)N[C@@H](CCCCN)C(=O)N[C@@H](CCSC)C(N)=O`: in assay [1], the IC50 is 2.62 µM. This molecule gave an MIC in assay [2] of 2.37 µM (≈ 3.06 µg/mL).
